According to US20240101540A1, “TARGETED PROTEIN DEGRADATION OF PARP14 FOR USE IN THERAPY” (Ribon Therapeutics, Inc., priority 2022, published 2024):
Structures can show the parent of a compound that is named as a salt.

Target: T1, HiBiT tagged PARP14 (Homo sapiens, UniProt Q460N5)
T1 construct: engineered to contain a HiBiT tag on both alleles of the PARP14 gene; endogenous in cells; host or cells: Jurkat cells stably transfected with LgBiT (Promega), PARP14 locus edited by CRISPR/Cas9
Test: HiBiT assay for the degradation of PARP14 (HiBiT tagged PARP14 in LgBiT expressing Jurkat cells, 2 or 24 hours)
Type: cell-based
Details: Assay B (Example B): HiBiT tagged PARP14 degradation in LgBiT expressing Jurkat cells, read-out: DC50
Method in brief: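 Jurkat cells stably expressing LgBiT with CRISPR knock-in of C-terminal HiBiT on both PARP14 alleles, 5,000 cells/well, treated with compound dose-response at 37 °C for 2 or 24 h. Live Cell Substrate luminescence normalised to 0.1% DMSO wells; DC50 from 4-parameter fit with floating top, bottom, Hill.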

T1 sequence (Q460N5 whole entry): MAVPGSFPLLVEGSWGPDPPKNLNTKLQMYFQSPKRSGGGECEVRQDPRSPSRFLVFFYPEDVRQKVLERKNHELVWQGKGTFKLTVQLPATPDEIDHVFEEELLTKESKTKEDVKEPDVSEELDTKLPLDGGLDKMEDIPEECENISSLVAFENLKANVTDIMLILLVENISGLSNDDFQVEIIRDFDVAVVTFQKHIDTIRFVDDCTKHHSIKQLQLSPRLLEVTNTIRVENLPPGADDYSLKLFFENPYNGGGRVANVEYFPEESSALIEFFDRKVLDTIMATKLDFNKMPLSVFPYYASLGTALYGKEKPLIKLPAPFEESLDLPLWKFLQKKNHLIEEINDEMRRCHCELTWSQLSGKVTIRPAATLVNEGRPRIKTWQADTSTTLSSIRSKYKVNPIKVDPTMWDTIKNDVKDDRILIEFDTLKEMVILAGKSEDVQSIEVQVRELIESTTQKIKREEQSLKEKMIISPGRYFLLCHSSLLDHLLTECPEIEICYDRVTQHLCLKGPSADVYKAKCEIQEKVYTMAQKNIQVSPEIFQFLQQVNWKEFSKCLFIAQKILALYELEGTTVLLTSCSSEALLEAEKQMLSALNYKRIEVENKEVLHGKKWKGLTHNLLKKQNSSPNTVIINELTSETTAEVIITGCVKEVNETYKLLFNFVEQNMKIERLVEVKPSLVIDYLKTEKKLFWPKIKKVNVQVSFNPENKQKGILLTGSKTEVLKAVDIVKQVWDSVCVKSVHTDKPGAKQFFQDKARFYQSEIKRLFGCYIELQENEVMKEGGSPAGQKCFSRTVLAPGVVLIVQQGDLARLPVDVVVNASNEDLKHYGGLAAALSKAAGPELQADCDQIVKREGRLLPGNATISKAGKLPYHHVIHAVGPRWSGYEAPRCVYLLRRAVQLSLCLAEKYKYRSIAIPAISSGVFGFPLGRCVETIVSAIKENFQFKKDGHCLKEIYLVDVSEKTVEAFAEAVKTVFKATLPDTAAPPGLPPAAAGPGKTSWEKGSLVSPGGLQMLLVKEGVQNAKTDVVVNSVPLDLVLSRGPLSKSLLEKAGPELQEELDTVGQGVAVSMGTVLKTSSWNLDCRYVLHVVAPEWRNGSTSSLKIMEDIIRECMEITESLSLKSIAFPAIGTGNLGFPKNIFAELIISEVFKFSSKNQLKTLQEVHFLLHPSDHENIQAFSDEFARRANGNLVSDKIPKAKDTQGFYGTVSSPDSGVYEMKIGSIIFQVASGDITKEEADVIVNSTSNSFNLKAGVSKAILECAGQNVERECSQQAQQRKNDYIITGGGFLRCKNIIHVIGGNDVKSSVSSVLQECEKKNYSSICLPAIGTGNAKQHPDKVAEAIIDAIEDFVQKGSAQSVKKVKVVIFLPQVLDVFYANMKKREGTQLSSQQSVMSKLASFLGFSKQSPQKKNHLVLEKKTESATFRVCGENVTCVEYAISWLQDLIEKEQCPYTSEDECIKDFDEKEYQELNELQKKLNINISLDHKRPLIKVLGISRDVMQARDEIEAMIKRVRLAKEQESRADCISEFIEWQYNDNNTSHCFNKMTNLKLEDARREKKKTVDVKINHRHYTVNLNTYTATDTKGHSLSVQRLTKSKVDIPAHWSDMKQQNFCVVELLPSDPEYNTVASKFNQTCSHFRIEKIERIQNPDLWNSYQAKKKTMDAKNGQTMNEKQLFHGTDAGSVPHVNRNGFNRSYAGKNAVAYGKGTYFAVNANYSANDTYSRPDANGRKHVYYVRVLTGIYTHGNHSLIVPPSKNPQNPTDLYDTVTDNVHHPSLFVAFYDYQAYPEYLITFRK

DC50 | SMILES
< 0.03 µM | O=C1CCC(N2C(=O)c3ccc(N4CCC(N5CC(N6CCC(COc7cc(F)c8c(=O)[nH]c(CSC9CCOCC9)nc8c7)CC6)C5)CC4)cc3C2=O)C(=O)N1 (stereo not shown) [Example 191, 2-(2,6-dioxopiperidin-3-yl)-5-(4-(3-(4-(((5-fluoro-4-oxo-2-(((tetrahydro-2H-pyran-4-yl)thio)methyl)-3,4-dihydroquinazolin-7-yl)oxy)methyl)piperidin-1-yl)azetidin-1-yl)piperidin-1-yl)isoindoline-1,3-dione]
< 0.03 µM | O=C1CCC(Nc2ccc(N3CCN(CCN4CCC(COc5cc(F)c6c(=O)[nH]c(COC7CCOCC7)nc6c5)CC4)CC3)cc2F)C(=O)N1 (stereo not shown) [Example 192, 3-((2-fluoro-4-(4-(2-(4-(((5-fluoro-4-oxo-2-(((tetrahydro-2H-pyran-4-yl)oxy)methyl)-3,4-dihydroquinazolin-7-yl)oxy)methyl)piperidin-1-yl)ethyl)piperazin-1-yl)phenyl)amino)piperidine-2,6-dione diformate]
< 0.03 µM | O=C1CCC(Nc2ccc(N3CCN(CCN4CC(COc5cc(F)c6c(=O)[nH]c(CSC7CCOCC7)nc6c5)C4)CC3)c(F)c2)C(=O)N1 (stereo not shown) [Example 193, 3-((3-fluoro-4-(4-(2-(3-(((5-fluoro-4-oxo-2-(((tetrahydro-2H-pyran-4-yl)thio)methyl)-3,4-dihydroquinazolin-7-yl)oxy)methyl)azetidin-1-yl)ethyl)piperazin-1-yl)phenyl)amino)piperidine-2,6-dione]
< 0.03 µM | O=C1CCC(Nc2ccc(N3CCN(CCN4CCC(COc5cc(F)c6c(=O)[nH]c(CSC7CCCCC7)nc6c5)CC4)CC3)c(F)c2)C(=O)N1 (stereo not shown) [Example 194, 3-({4-[4-(2-{4-[({2-[(cyclohexylsulfanyl)methyl]-5-fluoro-4-oxo-3H-quinazolin-7-yl}oxy)methyl]piperidin-1-yl}ethyl)piperazin-1-yl]-3-fluorophenyl}amino)piperidine-2,6-dione]
< 0.03 µM | Cn1nc(C2CCC(=O)NC2=O)c2cc(F)c(C3CCN(CCN4CCC(COc5cc(F)c6c(=O)[nH]c(CSC7CCOCC7)nc6c5)CC4)CC3)cc21 (stereo not shown) [Example 195, 3-(5-fluoro-6-(1-(2-(4-(((5-fluoro-4-oxo-2-(((tetrahydro-2H-pyran-4-yl)thio)methyl)-3,4-dihydroquinazolin-7-yl)oxy)methyl)piperidin-1-yl)ethyl)piperidin-4-yl)-1-methyl-1H-indazol-3-yl)piperidine-2,6-dione]
< 0.03 µM | O=C1CCN(c2ccc(N3CCN(CCN4CCC(COc5cc(F)c6c(=O)[nH]c(CSC7CCOCC7)nc6c5)CC4)CC3)c(F)c2)C(=O)N1 [Example 196, 1-(3-fluoro-4-(4-(2-(4-(((5-fluoro-4-oxo-2-(((tetrahydro-2H-pyran-4-yl)thio)methyl)-3,4-dihydroquinazolin-7-yl)oxy)methyl)piperidin-1-yl)ethyl)piperazin-1-yl)phenyl)dihydropyrimidine-2,4(1H,3H)-dione]
< 0.03 µM | O=C1CCN(c2ccc(N3CCN(CCN4CCC(COc5cc(F)c6c(=O)[nH]c(COC7CCOCC7)nc6c5)CC4)CC3)c(F)c2)C(=O)N1 [Example 197, 1-(3-fluoro-4-(4-(2-(4-(((5-fluoro-4-oxo-2-(((tetrahydro-2H-pyran-4-yl)oxy)methyl)-3,4-dihydroquinazolin-7-yl)oxy)methyl)piperidin-1-yl)ethyl)piperazin-1-yl)phenyl)dihydropyrimidine-2,4(1H,3H)-dione]
< 0.03 µM | Cn1nc(N2CCC(=O)NC2=O)c2cc(F)c(C3CCN(CCN4CCC(COc5cc(F)c6c(=O)[nH]c(COC7CCOCC7)nc6c5)CC4)CC3)cc21 [Example 198, 1-(5-fluoro-6-(1-(2-(4-(((5-fluoro-4-oxo-2-(((tetrahydro-2H-pyran-4-yl)oxy)methyl)-3,4-dihydroquinazolin-7-yl)oxy)methyl)piperidin-1-yl)ethyl)piperidin-4-yl)-1-methyl-1H-indazol-3-yl)dihydropyrimidine-2,4(1H,3H)-dione]
< 0.03 µM | O=C1CCC(Nc2ccc(NC(=O)[C@H]3CCN(CCN4CCC(COc5cc(F)c6c(=O)[nH]c(COC7CCOCC7)nc6c5)CC4)C3)c(F)c2)C(=O)N1 (stereo partly drawn) [Example 199, (3S)-N-(4-((2,6-dioxopiperidin-3-yl)amino)-2-fluorophenyl)-1-(2-(4-(((5-fluoro-4-oxo-2-(((tetrahydro-2H-pyran-4-yl)oxy)methyl)-3,4-dihydroquinazolin-7-yl)oxy)methyl)piperidin-1-yl)ethyl)pyrrolidine-3-carboxamide]
< 0.03 µM | O=C1CCC(Nc2ccc(NC(=O)[C@@H]3CCN(CCN4CCC(COc5cc(F)c6c(=O)[nH]c(COC7CCOCC7)nc6c5)CC4)C3)c(F)c2)C(=O)N1 (stereo partly drawn) [Example 200, (3R)-N-(4-((2,6-dioxopiperidin-3-yl)amino)-2-fluorophenyl)-1-(2-(4-(((5-fluoro-4-oxo-2-(((tetrahydro-2H-pyran-4-yl)oxy)methyl)-3,4-dihydroquinazolin-7-yl)oxy)methyl)piperidin-1-yl)ethyl)pyrrolidine-3-carboxamide]
< 0.03 µM | O=C1CCC(Nc2ccc(NC(=O)C3CCN(CCN4CCC(COc5cc(F)c6c(=O)[nH]c(COC7CCOCC7)nc6c5)CC4)CC3)c(F)c2)C(=O)N1 (stereo not shown) [Example 201, N-(4-((2,6-dioxopiperidin-3-yl)amino)-2-fluorophenyl)-1-(2-(4-(((5-fluoro-4-oxo-2-(((tetrahydro-2H-pyran-4-yl)oxy)methyl)-3,4-dihydroquinazolin-7-yl)oxy)methyl)piperidin-1-yl)ethyl)piperidine-4-carboxamide]
< 0.03 µM | CN(C(=O)C1CCN(CCN2CCC(COc3cc(F)c4c(=O)[nH]c(COC5CCOCC5)nc4c3)CC2)CC1)c1ccc(NC2CCC(=O)NC2=O)cc1F (stereo not shown) [Example 202, N-(4-((2,6-dioxopiperidin-3-yl)amino)-2-fluorophenyl)-1-(2-(4-(((5-fluoro-4-oxo-2-(((tetrahydro-2H-pyran-4-yl)oxy)methyl)-3,4-dihydroquinazolin-7-yl)oxy)methyl)piperidin-1-yl)ethyl)-N-methylpiperidine-4-carboxamide]
< 0.03 µM | Cn1nc(N2CCC(=O)NC2=O)c2cccc(C3CCN(CCN4CCC(COc5cc(F)c6c(=O)[nH]c(COC7CCOCC7)nc6c5)CC4)CC3)c21 [Example 203, 1-(7-(1-(2-(4-(((5-fluoro-4-oxo-2-(((tetrahydro-2H-pyran-4-yl)oxy)methyl)-3,4-dihydroquinazolin-7-yl)oxy)methyl)piperidin-1-yl)ethyl)piperidin-4-yl)-1-methyl-1H-indazol-3-yl)dihydropyrimidine-2,4(1H,3H)-dione]
< 0.03 µM | O=C1CCN(c2ccc(C3CCN(CCN4CCC(COc5cc(F)c6c(=O)[nH]c(COC7CCOCC7)nc6c5)CC4)CC3)c(F)c2)C(=O)N1 [Example 204, 1-(3-fluoro-4-(1-(2-(4-(((5-fluoro-4-oxo-2-(((tetrahydro-2H-pyran-4-yl)oxy)methyl)-3,4-dihydroquinazolin-7-yl)oxy)methyl)piperidin-1-yl)ethyl)piperidin-4-yl)phenyl)dihydropyrimidine-2,4(1H,3H)-dione]
< 0.03 µM | Cn1nc(N2CCC(=O)NC2=O)c2ccc(C3CCN(CCN4CCC(COc5cc(F)c6c(=O)[nH]c(COC7CCOCC7)nc6c5)CC4)CC3)c(F)c21 [Example 205, 1-(7-fluoro-6-(1-(2-(4-(((5-fluoro-4-oxo-2-(((tetrahydro-2H-pyran-4-yl)oxy)methyl)-3,4-dihydroquinazolin-7-yl)oxy)methyl)piperidin-1-yl)ethyl)piperidin-4-yl)-1-methyl-1H-indazol-3-yl)dihydropyrimidine-2,4(1H,3H)-dione]
< 0.03 µM | O=C1CCC(Nc2ccc(N3CCN(CCN4CCC(COc5ccc6c(=O)[nH]c(CSC7CCOCC7)nc6c5)CC4)CC3)c(F)c2)C(=O)N1 (stereo not shown) [Example 206, 3-((3-fluoro-4-(4-(2-(4-(((4-oxo-2-(((tetrahydro-2H-pyran-4-yl)thio)methyl)-3,4-dihydroquinazolin-7-yl)oxy)methyl)piperidin-1-yl)ethyl)piperazin-1-yl)phenyl)amino)piperidine-2,6-dione]
< 0.03 µM | Cn1nc(N2CCC(=O)NC2=O)c2cc(F)c(C3CCN(CCN4CCC(COc5cc(F)c6c(=O)[nH]c(CSC7CCOCC7)nc6c5)CC4)CC3)cc21 [Example 207, 1-(5-fluoro-6-(1-(2-(4-(((5-fluoro-4-oxo-2-(((tetrahydro-2H-pyran-4-yl)thio)methyl)-3,4-dihydroquinazolin-7-yl)oxy)methyl)piperidin-1-yl)ethyl)piperidin-4-yl)-1-methyl-1H-indazol-3-yl)dihydropyrimidine-2,4(1H,3H)-dione formate]
< 0.03 µM | O=C1CCN(c2ccc(C3CCN(CCN4CCC(COc5cc(F)c6c(=O)[nH]c(CSC7CCOCC7)nc6c5)CC4)CC3)c(F)c2)C(=O)N1 [Example 208, 1-(3-fluoro-4-(1-(2-(4-(((5-fluoro-4-oxo-2-(((tetrahydro-2H-pyran-4-yl)thio)methyl)-3,4-dihydroquinazolin-7-yl)oxy)methyl)piperidin-1-yl)ethyl)piperidin-4-yl)phenyl)dihydropyrimidine-2,4(1H,3H)-dione]
< 0.03 µM | O=C1CCN(c2cnc3cc(N4CCN(CCN5CCC(COc6cc(F)c7c(=O)[nH]c(CSC8CCOCC8)nc7c6)CC5)CC4)ccn23)C(=O)N1 [Example 209, 1-(7-(4-(2-(4-(((5-fluoro-4-oxo-2-(((tetrahydro-2H-pyran-4-yl)thio)methyl)-3,4-dihydroquinazolin-7-yl)oxy)methyl)piperidin-1-yl)ethyl)piperazin-1-yl)imidazo[1,2-a]pyridin-3-yl)dihydropyrimidine-2,4(1H,3H)-dione diformate]
